Reference: patent publication US9181309B1, “Peptide regulation of maize defense responses” (The United States of America, as represented by the …, priority 2011, dated 2015)

Assays:
S. exigua = assay: Larval growth on peptide-pretreated leaves; assay type: in vivo, Spodoptera exigua; conditions: compared to untreated or water-treated leaves
Experimental: To assess the role of ZmPep3-induced direct defenses, S. exigua growth on peptide-pretreated leaves was evaluated. […] This effect was expected given the potency of ZmPep3-induced proteins and benzoxazinoids against herbivores.

[1] = system: volatile emission from maize leaves; assay: Volatile collection and GC analysis of emitted volatiles from excised maize leaves; assay type: in vivo, Zea mays
Experimental: Volatiles were collected by a previously described method (Schmelz et al., Planta. 214:171, 2001). Briefly, excised leaves were placed in glass cylinders (Analytical Research Systems, Gainesville, Fla., USA) and maintained under their original lighting conditions. Clean, humidified air was passed through the cylinders (550 ml/min) and the leaf-emitted volatiles were trapped on 50 mg Super Q (80/100 mesh; Alltech, Deerfield, Ill., USA) for 30 minutes. Super Q traps were eluted with 150 μl methylene chloride with 400 ng of nonyl acetate added as an internal standard. At least three leaf replicates were used for each treatment. Volatiles were analyzed by gas chromatography-mass spectrometry (GC-MS) using an Agilent (Agilent Technologies, Inc., Santa Clara, Calif.) 7890A gas chromatograph (carrier gas; He at 1.2 ml min^−1; splitless injector, temperature 220° C., injection volume 1 μl) with an DB-1MS column (100% Dimethylpolysiloxane; 15 m long, 250 μm i.d., 0.1 μm film thickness). Temperatures were programmed from 40° C. (0.5 min hold) at 12° C. min^−1 to 180° C. then 220° C. (2.0 min hold for the post run). Signals were captured with a flame ionization detector (250° C.). The GC was coupled to an HP 5973 quadrupole-type mass selective detector with transfer line, source, and quadrupole temperatures of 230° C., 230° C. and 150° C., respectively. […] Volatile compounds were identified by comparison of retention times with authentic standards and by comparison of mass spectra with Wiley and NIST libraries.

[2] = system: jasmonic acid and ethylene production in maize leaves; assay: Phytohormone (JA, ET) production in treated leaves; assay type: in vivo, Zea mays
Excerpt: A further embodiment is ZmPEP3 regulated production of defense-related metabolites. The elicitor-induced phytohormones JA and ethylene (ET) function as signals integral to initiation of protective responses against pathogens and herbivores (Howe and Jander, Annu Rev Plant Biol. 59:41, 2008).

maize leaf transcripts = assay: Microarray analysis of transcript levels in ZmPep3 vs water-treated leaves; assay type: in vivo, Zea mays; conditions: leaves treated for 12 h
Excerpt: The gene transcripts shown in FIG. 4 are a subset of the defense-related genes found to be induced by ZmPEP3 peptide in the excised leaf assays. Including these, a total of twenty genes have been identified as ZmPEP3-responsive. All can be classified as pertaining to four broad categories of defense-related genes; those encoding proteins that are directly antimicrobial, those encoding proteins that synthesize secondary metabolites associated with defense, those encoding proteins that are involved in reactive oxygen species-based signal transduction and detoxification, and those that encode biosynthetic proteins for the two main plant small molecule hormone regulators of defense, ethylene and oxylipins. To obtain a more global perspective of gene expression regulated by ZmPEP3, a microarray experiment was performed to compare expression levels in ZmPEP3 vs. water-treated leaves after […]. […] In FIG. 7, real-time quantification of expression levels of genes associated with direct and indirect herbivore defenses confirms that ZmPEP3 is a strong regulator of both defense responses. […] FIG. 8 lists defense-associated genes discovered to be induced by the ZmPEP3.
A microarray analysis of transcript levels in leaves that were treated for 12 h with either water or ZmPep3 was employed to better characterize the breadth of ZmPep3-regulated responses. […]

[3] = system: herbivore defense genes in maize leaves; assay: Real time qPCR / qRT-PCR of defense and phytohormone biosynthesis genes in treated leaves
[4] = equivalent molar concentrations
[5] = low equivalent quantities of elicitor
[6] = real-time quantification, peptide-treated leaves

Substance: ZmPEP3: 23 amino acid maize plant elicitor peptide TRTPPWPPCPPEEGSGGNGGSHN (SEQ ID NO: 3) (Zea mays)
- less biomass gain of second instar larvae (S. exigua): 40%
- increase in total defense volatile emission compared to water-supplied leaves ([1]; 1.8 nMol peptide per gram of leaf material): 91%
- volatile profile vs water-supplied leaves ([1]; 18 or 180 fMols of peptide per gram of leaf, 30 minutes collection): almost the same as leaves supplied with water
- lowest concentration with significant increases in defense volatile emission ([1]; 30 minutes collection): 1.8 pMol ZmPEP3 peptide per gram of leaf material
- profile of volatile compounds emitted in thirty minutes ([1]; GC, vs water-supplied leaves): Many molecules are detected
- difference in terpenes emitted, ZmPep3 versus Gln-18:3 [1, 4]: no significant quantitative difference
- indole emission relative to damage alone ([1]; in vivo): increased above damage alone
- spectrum of elicited volatile components compared with S. exigua herbivory ([1]; in vivo): same spectrum of volatile components
- increase in DMNT emission over water-treated leaves ([1]; six hour period): 6 fold
- increase in alpha-bergamotene emission over water-treated leaves ([1]; six hour period): over a thousand fold
- increase in beta-caryophyllene emission over water-treated leaves ([1]; six hour period): over 100 fold
- increase in beta-farnesene emission over water-treated leaves ([1]; six hour period): over 900 fold
- increase in indole emission over water-treated leaves ([1]; six hour period): over 100 fold
- increase in nerolidol emission over water-treated leaves ([1]; six hour period): 360 fold
- jasmonic acid accumulation in leaves ([2]; ZmPEP3-treated leaves): found to accumulate
- JA and ET increases, ZmPep3 compared to Gln-18:3 ([2]; low equivalent quantities): greater magnitude and longer duration
- JA and ET synthesis ([2]; low equivalent quantities of either elicitor): elicitation of JA and ET synthesis
- BX1 and BX2 microarray probe sets (maize leaf transcripts): upregulated
- SerPIN probe set in microarray (maize leaf transcripts): most highly upregulated probe set
- BX1 and BX2 expression by qRT-PCR ([3]; 12 h post-treatment): expressed
- TPS10 and TPS23 gene expression, ZmPep3 versus Gln-18:3 [3, 4]: more strongly induced
- expression of genes encoding Terpene Synthases (TPS) 10 and 23 [3, 4]: strongly activate expression
- SerPIN and WIP1 expression by qRT-PCR ([3]; in vivo): highly expressed
- expression of AAMT1 and IGL genes ([3]; in vivo): induced
- ACC Oxidase and AOC transcript, ZmPep3-treated compared to Gln-18:3-treated leaves [3, 5]: greater quantities of transcript
- accumulation of transcripts for ACC Oxidase, Allene Oxide Synthase and Allene Oxide Cyclase [3, 5]: significantly increased accumulation of transcripts
- upregulation of genes encoding proteinase inhibitor proteins [3, 6]: more than a thousand-fold
- upregulation of genes encoding terpene synthases [3, 6]: more than a thousand-fold
